Where two headings read alike, the source gives them in different places. Marks after values point to notes of the source that are not given here. Bridge positions count the residues as written; N and C are the ends. Square brackets hold non-standard residues; d marks the D form. Ends that are not written are not given here. Peptide text beside a SMILES is read from it. * marks the point of attachment. X1 = CC[C@H](C)CCCCC(=O)*; Dab = NCC[C@H](N)C(=O)O
How the values were obtained:
[1] = tested on: S. typhimurium DA22427 waaY (del bp17FS); assay: microbe, parasite or virus in culture; type: cell-based; settings: for MIC: Salmonella enterica, TYPHIMURIUM, 24 h, read-out: Minimum inhibitory concentrations; for Minimum inhibitory concentrations: S. typhimurium mutant DA22427 waaY (del bp17FS), broth microdilution, 24 h at 37 °C, triplicate
Method: (§1) To explore these variations, the peptides were tested against cross-resistant strains of S. typhimurium, which were experimentally derived from the wild type bacterium subjected to increasing concentrations of pore-forming human HDPs[55]. Three genetic mutations were selected as candidate contributors to resistance and were reconstituted in the wild type genetic background, giving rise to the strains given in Table 2. One strain has the waaY gene mutated. This gene encodes for WaaY kinase that adds a phosphate group to the heptose II residue in the LPS inner core. The deactivation of the gene leads to decreased susceptibility to HDPs[56], as a result of reducing peptide binding to cell surfaces to the levels below those necessary to lyse the bacterium. Two other strains were mutated in pmrB and phoP genes, both of which are involved in masking phosphate groups (diminished charge) and influencing membrane fluidity (restricted motion)[58]. Finally, the fourth strain combined all three mutations (Table 2).
(§2) Minimum inhibitory concentrations (MICs) were determined by broth microdilution on P. aeruginosa (ATCC27853), E. coli (K12), S. aureus (ATCC6538), M. luteus (NCIMB13267), B. subtilis (ATCC6633), S. typhimurium (DA6192) and E. faecalis (OG1X) according to the Clinical and Laboratory Standards Institute and as recommended for antimicrobial peptide testing. Typically, 100 μL of 0.5–1 × 10^6 CFU per ml of each bacterium in Mueller Hinton media broth (Oxoid) were incubated in 96-well polystyrene microtiter plates with 100 μL of serial twofold dilutions of the peptides (from 100 to 0 μM) at 37 °C on a 3D orbital shaker. The absorbance was measured after peptide addition at 600 nm using a Victor 2 plate reader (Perkin-Elmer). MICs were defined as the lowest peptide concentration after 24 h at 37 °C. The mutant strains of S. typhimurium, named using the original nomenclature, were kindly provided by Dan Andersson[55].

[2] = tested on: S. typhimurium DA23899 waaY, pmrB, phoP; assay: microbe, parasite or virus in culture; type: cell-based; settings: for MIC: Salmonella enterica, TYPHIMURIUM, 24 h, read-out: Minimum inhibitory concentrations; for Minimum inhibitory concentrations: S. typhimurium mutant DA23899 waaY, pmrB, phoP, broth microdilution, 24 h at 37 °C, triplicate
Method: as §1, §2

[3] = tested on: S. typhimurium (DA6192); assay: microbe, parasite or virus in culture; type: cell-based; settings: 24 h at 37 °C, triplicate, read-out: Minimum inhibitory concentrations
Method: as §2, with “Typically, 100 μL of 0.5–1 × 10^6 CFU per ml of each bacterium in Mueller Hinton media broth (Oxoid) were incubated in 96-well polystyrene microtiter plates with 100 μL of serial twofold dilutions of the peptides (from 100 to 0 μM) at 37 °C on a 3D orbital shaker.” left out

[4] = tested on: M. luteus (NCIMB13267); assay: microbe, parasite or virus in culture; type: cell-based; settings: read-out: Minimum inhibitory concentrations
Method: as §2, with “Typically, 100 μL of 0.5–1 × 10^6 CFU per ml of each bacterium in Mueller Hinton media broth (Oxoid) were incubated in 96-well polystyrene microtiter plates with 100 μL of serial twofold dilutions of the peptides (from 100 to 0 μM) at 37 °C on a 3D orbital shaker.” left out

[5] = tested on: S. aureus (ATCC6538); assay: microbe, parasite or virus in culture; type: cell-based; settings: read-out: Minimum inhibitory concentrations
Method: as §2, with “Typically, 100 μL of 0.5–1 × 10^6 CFU per ml of each bacterium in Mueller Hinton media broth (Oxoid) were incubated in 96-well polystyrene microtiter plates with 100 μL of serial twofold dilutions of the peptides (from 100 to 0 μM) at 37 °C on a 3D orbital shaker.” left out

[6] = tested on: E. coli (K12); assay: microbe, parasite or virus in culture; type: cell-based; settings: read-out: Minimum inhibitory concentrations
Method: as §2

[7] = tested on: P. aeruginosa (ATCC27853); assay: microbe, parasite or virus in culture; type: cell-based; settings: read-out: Minimum inhibitory concentrations
Method: as §2

[8] = tested on: B. subtilis (ATCC6633); assay: microbe, parasite or virus in culture; type: cell-based; settings: read-out: Minimum inhibitory concentrations
Method: as §2

[9] = tested on: human erythrocytes; settings: for LC50, median (50%) lethal concentration: human erythrocytes; for hemolysis: 250 µM
Method: Hemolysis was determined by incubating a 10% (vol/vol) suspension of human erythrocytes with peptides. Erythrocytes were rinsed four times in 10 mM phosphate buffer saline (PBS), pH 7.2, by repeated centrifugation and re-suspension (3 min at 3000 × g). Erythrocytes were incubated at room temperature for 1 h in either deionized water (fully haemolysed control), PBS, or with peptide in PBS. After centrifugation at 10,000 × g for 5 min, the supernatant was separated from the pellet, and the absorbance was measured at 550 nm. Absorbance of the suspension treated with deionized water defined complete hemolysis. […] All tests were done in triplicate.

[10] = tested on: S. typhimurium DA23307 phoP (D23N); type: cell-based; settings: S. typhimurium mutant DA23307 phoP (D23N); broth microdilution, 24 h at 37 °C, triplicate
Method: as §1, §2

[11] = tested on: S. typhimurium DA23175 pmrB (R13H); type: cell-based; settings: S. typhimurium mutant DA23175 pmrB (R13H); broth microdilution, 24 h at 37 °C, triplicate
Method: as §1, §2

[12] = for comparison, naturally occurring HDPs; cited from earlier work
Method: The improved amphipathicity of CecM compared to CecB was evaluated by calculating the mean hydrophobic moment using HeliQuest[70]. The mean hydrophobic moment is a two-dimensional vector sum which provides a direct, quantitative measure of amphipathicity in regular repeats. The mean hydrophobic moment increases from CecB (0.296) to CecM (0.350). For comparison, values for PGLa and magainin, two naturally occurring HDPs, are 0.260 and 0.286, respectively. Percentage of secondary structure elements was calculated using STRIDE[73]. Oligomerisation simulations were performed over 500 ns fo ...

[13] = S. typhimurium DA6192 (wild type, Table 2), broth microdilution
[14] = 10% (vol/vol) suspension in PBS pH 7.2, 1 h at room temperature, absorbance 550 nm, triplicate (Table 1)
[15] = S. typhimurium (Table 1), broth microdilution (CLSI), Mueller Hinton broth, absorbance 600 nm
[16] = M. luteus, broth microdilution (CLSI), Mueller Hinton broth, 24 h at 37 °C, absorbance 600 nm, triplicate
[17] = S. aureus, Ala-d3 ChoM mutants (Table S6), broth microdilution
[18] = E. coli, Ala-d3 ChoM mutants (Table S6), broth microdilution
[19] = P. aeruginosa, Ala-d3 ChoM mutants (Table S6), broth microdilution

CO/N=C(\C(=O)N[C@@H]1C(=O)N2C(C(=O)O)=C(CSc3nc(=O)c(=O)[nH]n3C)CS[C@H]12)c1csc(N)n1 [ceftriaxone]
MIC [1]: < 1 µM
MIC [2]: < 1 µM
MIC [3, 13]: <1 µM
MIC ([3]; Salmonella enterica, S. typhimurium (Table 1), broth microdilution (CLSI), Mueller Hinton broth, absorbance 600 nm): < 1 µM
MIC ([4]; Micrococcus luteus, NCIMB13267, M. luteus, broth microdilution (CLSI), Mueller Hinton broth, 24 h at 37 °C, absorbance 600 nm, triplicate): < 0.5 µM
MIC ([5]; Staphylococcus aureus, ATCC6538, S. aureus, broth microdilution (CLSI), Mueller Hinton broth, serial twofold dilutions 100 to 0 μM, 24 h at 37 °C, absorbance 600 nm, triplicate): < 3 µM
MIC ([6]; Escherichia coli, E. coli, broth microdilution (CLSI), Mueller Hinton broth, serial twofold dilutions 100 to 0 μM, 24 h at 37 °C, absorbance 600 nm, triplicate): < 6 µM
MIC ([7]; Pseudomonas aeruginosa, ATCC27853, P. aeruginosa, broth microdilution (CLSI), Mueller Hinton broth, serial twofold dilutions 100 to 0 μM, 24 h at 37 °C, absorbance 600 nm, triplicate): > 25 µM
MIC ([8]; Bacillus subtilis, ATCC6633, B. subtilis, broth microdilution (CLSI), Mueller Hinton broth, serial twofold dilutions 100 to 0 μM, 24 h at 37 °C, absorbance 600 nm, triplicate): < 1 µM
LC50, median (50%) lethal concentration [9, 14]: UD (UD is for undetectable (>1000))

CCCCCCCCCC(=O)N[C@@H](Cc1c[nH]c2ccccc12)C(=O)N[C@H](CC(N)=O)C(=O)N[C@@H](CC(=O)O)C(=O)N[C@@H]1C(=O)NCC(=O)N[C@@H](CCCN)C(=O)N[C@@H](CC(=O)O)C(=O)N[C@H](C)C(=O)N[C@@H](CC(=O)O)C(=O)NCC(=O)N[C@H](CO)C(=O)N[C@@H]([C@H](C)CC(=O)O)C(=O)N[C@@H](CC(=O)c2ccccc2N)C(=O)O[C@@H]1C [daptomycin]
MIC [3, 15]: >60 µM
MIC [4, 16]: <15 µM
MIC ([8]; B. subtilis, broth microdilution (CLSI), Mueller Hinton broth, serial twofold dilutions 100 to 0 μM, 24 h at 37 °C, absorbance 600 nm, triplicate): <7 µM
hemolysis ([9]; pH 7.2): 10%
LC50, median (50%) lethal concentration [9, 14]: >250^c µM

CC[C@H](C)CCCCC(=O)N[C@@H](CCN)C(=O)N[C@H](C(=O)N[C@@H](CCN)C(=O)N[C@H]1CCNC(=O)[C@H]([C@@H](C)O)NC(=O)[C@H](CCN)NC(=O)[C@H](CCN)NC(=O)[C@H](CC(C)C)NC(=O)[C@@H](Cc2ccccc2)NC(=O)[C@H](CCN)NC1=O)[C@@H](C)O [polymyxin B] (X1-[Dab]T[Dab][Dab][Dab][dF]L[Dab][Dab]T; lactam 4-C (inferred); N-terminus assumed)
Minimum inhibitory concentrations [1]: <0.5 µM
Minimum inhibitory concentrations [2]: <6 µM
Minimum inhibitory concentrations [10]: <2 µM
Minimum inhibitory concentrations [11]: <0.5 µM
MIC [3, 13]: <0.5 µM

CN(C)[C@@H]1C(O)=C(C(N)=O)C(=O)[C@@]2(O)C(O)=C3C(=O)c4c(O)cccc4[C@@](C)(O)[C@H]3C[C@@H]12 [tetracycline]
MIC [1]: < 1 µM
MIC [2]: < 1 µM
MIC [3, 15]: <1 µM
MIC ([3]; Salmonella enterica, S. typhimurium DA6192 (wild type, Table 2), broth microdilution): < 1 µM
MIC ([4]; Micrococcus luteus, NCIMB13267, 24 h): < 0.5 µM
MIC ([5]; Staphylococcus aureus, ATCC6538, 24 h): < 0.5 µM
MIC ([6]; Escherichia coli, 24 h): < 1.5 µM
MIC ([7]; Pseudomonas aeruginosa, ATCC27853, 24 h): < 6 µM
MIC ([8]; Bacillus subtilis, ATCC6633, 24 h): < 0.5 µM
LC50, median (50%) lethal concentration [9, 14]: UD (UD is for undetectable (>1000))

KWKAFKKIEKMIRNIRNKIVK [V4A]
MIC [5, 17]: > 12 µM
MIC [6, 18]: > 3 µM
MIC [7, 19]: > 3 µM
hemolysis [9]: 1-2%
LC50, median (50%) lethal concentration ([9]; Ala-d3 ChoM mutants (Table S6)): > 250 µM

KWKVFKKAEKMIRNIRNKIVK [I8A]
MIC [5, 17]: > 25 µM
MIC [6, 18]: > 3 µM
MIC [7, 19]: > 6 µM
LC50, median (50%) lethal concentration ([9]; Ala-d3 ChoM mutants (Table S6)): > 250 µM

KWKVFKKIEKMGRNIRNGIVK-NH2 [ChoC]
Minimum inhibitory concentrations [1]: >12 µM
Minimum inhibitory concentrations [2]: >25 µM
Minimum inhibitory concentrations [10]: >25 µM
Minimum inhibitory concentrations [11]: >25 µM
MIC [3, 15]: >12 µM
MIC [3, 13]: >12 µM
MIC [4, 16]: <1 µM
LC50, median (50%) lethal concentration [9, 14]: >250^d µM

KWKVFKKIEKMGRNIRNGIVKAGPAIAVLGEAKAL-NH2 [CecB, Cecropin B]
Minimum inhibitory concentrations [1]: <3 µM
Minimum inhibitory concentrations [2]: >6 µM
Minimum inhibitory concentrations [10]: <3 µM
Minimum inhibitory concentrations [11]: <3 µM
MIC [3, 15]: <3 µM
MIC [3, 13]: <3 µM
MIC [4, 16]: <1 µM
LC50, median (50%) lethal concentration [9, 14]: >250^d µM

KWKVLKKKIKMLRNRINGLVKAGPALKVKLQALAL-NH2 [CecM]
Minimum inhibitory concentrations [1]: <1 µM
Minimum inhibitory concentrations [2]: <2 µM
Minimum inhibitory concentrations [10]: <2 µM
Minimum inhibitory concentrations [11]: <1 µM
MIC [3, 15]: <1 µM
MIC [3, 13]: <1 µM
MIC [4, 16]: <1 µM
LC50, median (50%) lethal concentration [9, 14]: >250^d µM

PGLa
mean hydrophobic moment [12]: 0.260

magainin
mean hydrophobic moment [12]: 0.286

— publication PMC6175903, “Tuneable poration: host defense peptides as sequence probes for antimicrobial mechanisms” (Scientific Reports, 2018)
